Reference: PubChem BioAssay AID2305 (GlaxoSmithKline (GSK), 2010)

What follows are compounds tested on P. falciparum 3D7 growth, pLDH absorbance (assay: blood-stage malaria parasite growth potency – strain 3D7, dose response (AID 2305)).

SMILES	IC50
Cc1cccc2[nH]c(-c3ccc(-c4ccc(NC(=O)Nc5ccsc5)cc4)s3)nc12	110 nM
CCC1(CC)N=C(N)N=C(N)C1c1ccc(Cl)c(Cl)c1 (stereo not drawn)	380 nM
CN1CCN(CCCN(Cc2cccc(-c3cccc(CNCCc4ccccc4)c3)c2)C(=O)Nc2ccccc2)CC1	580 nM
O=[N+]([O-])c1cccc(-c2nc3ccc(C4=N[C@H]5CCCC[C@H]5N4)cc3[nH]2)c1	200 nM
CCN(CCCN1CCCCC1)c1cc(C)nc(Nc2cc(Cl)cc(Cl)c2)n1	290 nM
Cc1cc(C2CCN(CCCCNC(=O)c3ccc(-c4ccc(C#N)cc4)cc3)CC2)c(C)cc1O	850 nM
O=C(Nc1cc(F)cc(F)c1)NC1CCN(CCCCCNC(=O)[C@@H]2C[C@H]2c2ccc(Cl)c(Cl)c2)CC1	750 nM
Cc1nc(-c2nc(NCc3ccccn3)ncc2-c2ccsc2)sc1C	560 nM
Cc1nc(N=C(N)N)nc2cc3c(cc12)CCC3	920 nM
CCCCn1c(C(C)Oc2ccc(Cl)cc2Cl)nc2cc(S(N)(=O)=O)ccc21 (stereo not drawn)	710 nM
Cc1cccc2[nH]c(-c3ccc(-c4cccc(CN5CCCC5CN)c4)cc3)nc12 (stereo not drawn)	910 nM
CC(C)Nc1cc(C(=O)N[C@@H](Cc2ccccc2)[C@H](O)CNCc2cccc(C(F)(F)F)c2)c(F)c(N2CCCCS2(=O)=O)c1	790 nM
COc1cccc(CNC[C@@H](O)[C@H](Cc2ccccc2)NC(=O)c2cc(OC(C)C)cc(N3CCCCS3(=O)=O)c2)c1	730 nM
Cc1nc(N)nc(N)c1CCCOc1ccccc1Br	420 nM
CNCCCNCc1ccc(-c2ccc(F)c(Cl)c2)o1	750 nM
COc1cccc(CN2CCCC(COC(c3ccc(F)cc3)c3ccc(F)cc3)C2)c1O (stereo not drawn)	330 nM
Nc1nc(N)c2cc3ccc(OCc4ccccc4)cc3nc2n1	320 nM
COc1ccc(-c2cc3nc4c(c(NCCCn5ccnc5)n3n2)CCCC4)cc1	730 nM
CC1(C)N=C(N)N=C(N)N1c1ccc(Oc2ccc(Cl)cc2)c(Cl)c1	80 nM
Cc1noc(=O)c2ccc(NC(=O)C(O)(CSc3ccccc3)CC(C)C)cc12 (stereo not drawn)	720 nM
Cc1cccc2[nH]c(-c3ccc(-c4ccc(CN5CCN(c6ccncc6)CC5)cc4)s3)nc12	110 nM
O=c1cc(NCCCNC2CCCc3c2ccc2ccccc32)[nH]c2ccccc12 (stereo not drawn)	820 nM
CCN(CCCN1CCCCC1)c1cc(C)nc(Nc2ccc(C(C)C)cc2)n1	540 nM
CN(CCc1ccccc1)c1ncc(-c2cccc(CNCCC3CCCN3C)c2)cn1 (stereo not drawn)	870 nM
CC(Cc1ccc(OCCN2CCN(c3ccc(Cl)cc3)CC2)cc1)NCC(O)c1cccc(C(F)(F)F)c1 (stereo not drawn)	810 nM

SMILES	IC50
CN1CCN(c2ccnc3cc4ccccc4cc23)CC1	950 nM
O=C(/C=C/c1ccc(Cl)c(Cl)c1)NCCCCCN1CCC(C(=O)Nc2ccc(Cl)c(Cl)c2)CC1	640 nM
O=C(Nc1ccc2c(c1)CN(Cc1ccc(N3CCCC3)o1)CCC2)c1ccoc1	950 nM
N=c1c(C(=O)NCc2ccccc2)cc2c(=O)n3ccccc3nc2n1CCc1ccccc1	530 nM
O=C(Nc1ccc(OC2CCN(Cc3ccccc3)C2)c(Cl)c1)c1ccco1 (stereo not drawn)	410 nM
COc1ccc(C2=CCN(c3ccc(Cl)c(Cl)c3)C2=O)cc1OCCN1CCCCC1	780 nM
CC(=NNC(=S)NC(C)(C)C)c1ccccn1	160 nM
CO/C(=C\C=C\c1cc2cc(Cl)c(Cl)cc2[nH]1)C(=O)NC1C[C@@H](C)N(C)[C@@H](C)C1 (stereo partly drawn)	900 nM
COc1ccc(CCNc2nc(SCc3ccccc3Cl)nc3ccccc23)cc1OC	940 nM
CCCNC(=O)C1Cc2c([nH]c3ccc(Br)cc23)C2(CCN(CCc3ccccc3)CC2)N1 (stereo not drawn)	680 nM
N[C@@H](Cc1cc(I)c(Oc2ccc(O)c(Cl)c2)c(I)c1)C(=O)O	990 nM
CC(=O)N1N=C(c2ccc(Cl)cc2)Sc2c1nc(C1CCCCC1)n2C(C)=O	250 nM
COc1cc(Cc2cnc(N)nc2N)ccc1OCc1ccc(NC(C)=O)cc1	370 nM
Cc1nc2nc(N)nc(N)c2c(C)c1Cc1ccc(C#N)cc1	540 nM
O=C(Cc1cnc[nH]1)Nc1ccc(-c2ccc(-c3nc4ccccc4[nH]3)s2)cc1	1060 nM
O=c1cc(NCCCNCc2cc3ccccc3s2)[nH]c2ccccc12	1270 nM
CS(=O)(=O)c1ccc(-c2cncc(Cl)n2)cc1	770 nM
Cc1cc(NCCc2ccccc2)nc(/N=C(\N)Nc2cccc(F)c2)n1	900 nM
Cc1cccc(NC(c2cccs2)c2c(NC(=O)c3ccccc3)sc(C)c2C)n1 (stereo not drawn)	830 nM
CN1CCC(N2CCN(c3ccc4c(=O)nc(CCc5cccc(F)c5F)n(CC(=O)N(C)Cc5ccc(-c6ccc(C(F)(F)F)cc6)cc5)c4n3)CC2)CC1	720 nM
NS(=O)(=O)c1cccc(-c2ccc3ncc(N4CCOCC4)nc3c2)c1	990 nM
CN1CC[C@@H](Oc2cc(C(=O)NCc3ccc(Cl)c(Cl)c3)ccc2C(F)(F)F)C1	1250 nM
CCN(CCCN1CCCCC1)c1cc(C)nc(Nc2cccc3c2CCCC3)n1	1030 nM
CCN1CCC(NCc2ccc(-c3ccc(Cl)cc3)cc2)CC1	1020 nM
CSc1ccc(CN2CCC(NC(=O)c3ccc(-c4ccc(N(C)C)cc4)s3)CC2)cc1	1500 nM

SMILES	IC50
COc1cc(Cc2cnc(N)nc2N)cc(OCCCC(=O)O)c1OC	1180 nM
O[C@@H](c1ccc2ccccc2c1)[C@@H]1CN(CCc2ccccc2)CC[C@@]1(O)c1ccccc1	550 nM
COc1ccc2c(-c3ccccc3)noc2c1	240 nM
O=C(Nc1nc(-c2ccccn2)cs1)c1ccccc1COc1ccccc1	970 nM
O=C(/C=C/c1ccc(Cl)c(Cl)c1)N1CCCC(CCCN2CCC(c3c[nH]c4ccccc34)CC2)C1 (stereo not drawn)	1090 nM
c1ccc(-c2cc(NCCCn3ccnc3)nc(-c3cccnc3)n2)cc1	980 nM
CCOC(=O)c1ccc(OCc2ccc(-c3ccccc3)cc2)cc1	810 nM
CN(C)c1ccc2c(c1)Sc1cc(N(C)C)ccc1N2C(=O)CCCC(=O)O	800 nM
CCOc1cccc(C2c3c(oc4ccccc4c3=O)C(=O)N2CCN(CC)CC)c1 (stereo not drawn)	750 nM
FC(F)(F)c1ccc(Nc2nnnc3ccccc23)cc1	690 nM
CCCNCc1ccc(-c2ccc(CN(CCOC)C(=O)CCCOCc3ccccc3)cc2)nc1	1160 nM
CCc1cn2c3c(cc(C(=O)N[C@@H](Cc4ccccc4)[C@H](O)CNC4CCOCC4)cc13)N(CC(F)(F)F)S(=O)(=O)CC2	30 nM
COc1ccc(-c2c(C(F)(F)F)nn(C)c2NC(=O)Nc2ccc(F)cc2F)cc1	800 nM
O=C(N[C@@H](Cc1ccccc1)[C@H](O)CNCCC(F)(F)F)c1cccc(CCC2CC2)c1	1020 nM
CC(CN1CCN(C)CC1)C(=O)Nc1ccc(-c2cccc(-c3nc4ccccc4[nH]3)c2)cc1 (stereo not drawn)	570 nM
CN(C)CCN1CCN(CCCN2c3ccccc3Sc3ccc(C(F)(F)F)cc32)CC1	760 nM
CC(Oc1ccc(NC(=O)c2cccs2)cc1)C(=O)c1ccc(Cl)cc1 (stereo not drawn)	770 nM
Cc1cccc(C)c1N1CCN(C2CCC(NC(=O)/C=C/c3ccccc3)CC2)CC1 (stereo not drawn)	1180 nM
COc1ccc(CN2CCN(CCOC(c3ccccc3)c3ccc(Cl)cc3)CC2)c(O)c1 (stereo not drawn)	710 nM
CC(=O)Nc1ccc(C(=O)NC2CCN(c3ccnc4cc(Cl)ccc34)CC2)cc1	360 nM
CC1(C)N=C(N)N=C(N)N1OCc1nc(N)nc(Nc2ccccc2)n1	270 nM
CCN1CCC(N(Cc2ccc(-c3ccc(C(F)(F)F)cc3)cc2)C(=O)Cn2c(SCc3cccc(F)c3F)cc(=O)c3ccccc32)C1 (stereo not drawn)	880 nM
Cc1nc(N)nc(N)c1OCCCCCCOc1ccccc1	240 nM
